EPA's ToxRefDB 2

Experiments:
rat [1] = details: Fertility (Segment I), sprague dawley, Oral, Gavage/Intubation, dose end: 7 GD
rat [2] = details: Fertility (Segment I), sprague dawley, Oral, Gavage/Intubation, dose end: 7 GD; remark: listed apart in the source
rat [3] = details: Prenatal developmental toxicity study, sprague dawley, Oral, Gavage/Intubation, dose end: 17 GD
rat [4] = details: Sub-acute repeat dose toxicity, sprague dawley, Oral, Gavage/Intubation, dose end: 4 week, group: systemic
rat [5] = details: Prenatal developmental toxicity study, sprague dawley, Oral, Gavage/Intubation, dose end: 17 GD; remark: listed apart in the source
dog = details: Sub-acute repeat dose toxicity, beagle, Oral, Capsule, dose end: 1 month, group: systemic
rabbit [6] = details: Prenatal developmental toxicity study, new zealand white, Oral, Gavage/Intubation, dose end: 19 GD
rat [7] = details: Prenatal developmental toxicity study; sprague dawley; Oral; Gavage/Intubation; dose end: 17 GD; group: maternal; systemic / in life observation / body weight / body weight + systemic / in life observation / body weight / body weight gain + systemic / in…
rabbit [8] = details: Prenatal developmental toxicity study; new zealand white; Oral; Gavage/Intubation; dose end: 19 GD; group: maternal; systemic / in life observation / body weight / body weight gain + systemic / in life observation / food consumption / food consumption
[9] = group: maternal, reproductive / reproductive performance / estrous cycle / abnormal + reproductive / reproductive performance / estrous cycle / corpora lutea…
[10] = group: parental, systemic / in life observation / body weight / body weight + systemic / in life observation / body weight / body weight gain
[11] = group: parental, systemic / in life observation / body weight / body weight + systemic / in life observation / body weight / body weight gain + systemic / in…
[12] = group: maternal, reproductive / reproductive performance / estrous cycle / abnormal
[13] = group: parental, systemic / in life observation / body weight / body weight gain
[14] = group: parental, systemic / in life observation / body weight / body weight gain + systemic / in life observation / food consumption / food consumption
[15] = group: developmental, developmental / developmental malformation / trunk / absent genital tubercle + developmental / developmental malformation / trunk / anal …
[16] = group: maternal, systemic / in life observation / body weight / body weight + systemic / in life observation / body weight / body weight gain + systemic / in…
[17] = systemic / clinical chemistry / alanine aminotransferase (alt/sgpt) / alanine aminotransferase (alt/sgpt) + systemic / in life observation…
[18] = systemic / organ weight / salivary glands / absolute + systemic / pathology microscopic / vagina / diestrus
[19] = group: developmental, developmental / developmental malformation / bone / unossified + systemic / in life observation / body weight / fetal weight
[20] = systemic / in life observation / clinical signs / defecation (diarrhea)
[21] = systemic / in life observation / clinical signs / defecation (diarrhea) + systemic / clinical chemistry / alanine aminotransferase (alt/sgpt…
[22] = group: developmental, developmental / developmental malformation / bone / incomplete ossification + developmental / developmental malformation / bone / unossified…
[23] = group: maternal, systemic / in life observation / body weight / body weight gain + systemic / in life observation / food consumption / food consumption
[24] = group: maternal, systemic / in life observation / body weight / body weight gain + systemic / in life observation / food consumption / food consumption + …

CN(C)C(=O)NC1(c2ccccc2)CCN(CC[C@@]2(c3ccc(F)c(F)c3)CN(C(=O)c3ccccc3)CCO2)CC1.Cl
LEL (rat [1]; [9]): 250 mg/kg/day
LOAEL (rat [1]; [9]): > 250 mg/kg/day
NEL (rat [1]; [9]): 70 mg/kg/day
NOAEL (rat [1]; [9]): ≥ 250 mg/kg/day
LEL (rat [1]; [10]): 70 mg/kg/day
LOAEL (rat [1]; [10]): 70 mg/kg/day
NEL (rat [1]; [11]): 20 mg/kg/day
NOAEL (rat [1]; [11]): 20 mg/kg/day
LEL (rat [2]; [12]): 20 mg/kg/day
LOAEL (rat [2]; [12]): 100 mg/kg/day
NEL (rat [2]; [12]): < 20 mg/kg/day
NOAEL (rat [2]; [9]): 20 mg/kg/day
LEL (rat [2]; [13]): 20 mg/kg/day
NEL (rat [2]; [13]): < 20 mg/kg/day
LOAEL (rat [2]; [14]): 100 mg/kg/day
NOAEL (rat [2]; [14]): 20 mg/kg/day
LEL (rat [3]; [15]): 500 mg/kg/day
LOAEL (rat [3]; [15]): 500 mg/kg/day
NEL (rat [3]; [15]): 100 mg/kg/day
NOAEL (rat [3]; [15]): 100 mg/kg/day
LOAEL (rat [3]; [16]): 500 mg/kg/day
NEL (rat [3]; [16]): 20 mg/kg/day
NOAEL (rat [3]; [16]): 100 mg/kg/day
LEL (rat [3]; group: maternal, systemic / in life observation / clinical signs / piloerection + systemic / pathology gross / kidney / reduced size): 100 mg/kg/day
LOAEL (rat [4]; [17]): 100 mg/kg/day
NOAEL (rat [4]; [17]): 20 mg/kg/day
LEL (rat [4]; [18]): 20 mg/kg/day
NEL (rat [4]; [18]): < 20 mg/kg/day
LEL (rat [5]; [19]): 250 mg/kg/day
LOAEL (rat [5]; [19]): 250 mg/kg/day
NEL (rat [5]; [19]): 70 mg/kg/day
NOAEL (rat [5]; [19]): 70 mg/kg/day
LEL (rat [5]; [16]): 250 mg/kg/day
LOAEL (rat [5]; [16]): 250 mg/kg/day
NEL (rat [5]; [16]): 70 mg/kg/day
NOAEL (rat [5]; [16]): 70 mg/kg/day
LEL (dog; [20]): 20 mg/kg/day
NEL (dog; [20]): < 20 mg/kg/day
LOAEL (dog; [21]): > 180 mg/kg/day
NOAEL (dog; [21]): ≥ 180 mg/kg/day
LEL (rabbit [6]; [22]): 200 mg/kg/day
LOAEL (rabbit [6]; [22]): 200 mg/kg/day
NEL (rabbit [6]; [22]): 60 mg/kg/day
NOAEL (rabbit [6]; [22]): 60 mg/kg/day
LEL (rabbit [6]; [23]): 60 mg/kg/day
LOAEL (rabbit [6]; [23]): 60 mg/kg/day
NEL (rabbit [6]; [24]): 20 mg/kg/day
NOAEL (rabbit [6]; [24]): 20 mg/kg/day
LEL (rat [7]): 250 mg/kg/day
LOAEL (rat [7]): > 250 mg/kg/day
NEL (rat [7]): < 250 mg/kg/day
NOAEL (rat [7]): ≥ 250 mg/kg/day
LEL (rabbit [8]): 100 mg/kg/day
LOAEL (rabbit [8]): > 200 mg/kg/day
NEL (rabbit [8]): 20 mg/kg/day
NOAEL (rabbit [8]): ≥ 200 mg/kg/day
